From ChEMBL document CHEMBL1144565, “Anti-breast cancer activity of LFM-A13, a potent inhibitor of Polo-like kinase (PLK)” (Bioorg Med Chem, 2007)

Legend:
Mus musculus [1] = assay: Subacute toxicity in CD1 mouse assessed as absolute neutrophil counts at 40 mg/kg, ip after 30 days; format: organism-based; design: dose 40 mg/kg, route intraperitoneal; conditions: in vivo, 720 h
Mus musculus [2] = assay: Subacute toxicity in CD1 mouse assessed as absolute lymphocyte counts at 40 mg/kg, ip after 30 days; format: organism-based; design: dose 40 mg/kg, route intraperitoneal; conditions: in vivo, 720 h
Mus musculus [3] = assay: Subacute toxicity in CD1 mouse assessed as WBC counts at 20 mg/kg, ip after 30 days; format: organism-based; design: dose 20 mg/kg, route intraperitoneal; conditions: in vivo, 720 h
Mus musculus [4] = assay: Subacute toxicity in CD1 mouse assessed as absolute neutrophil counts at 20 mg/kg, ip after 30 days; format: organism-based; design: dose 20 mg/kg, route intraperitoneal; conditions: in vivo, 720 h
Mus musculus [5] = assay: Subacute toxicity in CD1 mouse assessed as absolute lymphocyte counts at 20 mg/kg, ip after 30 days; format: organism-based; design: dose 20 mg/kg, route intraperitoneal; conditions: in vivo, 720 h
Mus musculus [6] = assay: Subacute toxicity in CD1 mouse assessed as WBC counts at 10 mg/kg, ip after 30 days; format: organism-based; design: dose 10 mg/kg, route intraperitoneal; conditions: in vivo, 720 h
Mus musculus [7] = assay: Subacute toxicity in CD1 mouse assessed as absolute neutrophil counts at 10 mg/kg, ip after 30 days; format: organism-based; design: dose 10 mg/kg, route intraperitoneal; conditions: in vivo, 720 h
Mus musculus [8] = assay: Subacute toxicity in CD1 mouse assessed as absolute lymphocyte counts at 10 mg/kg, ip after 30 days; format: organism-based; design: dose 10 mg/kg, route intraperitoneal; conditions: in vivo, 720 h
Mus musculus [9] = assay: Subacute toxicity in CD1 mouse assessed as myeloid or lymphoid hyperplasia in bone marrow at 80 mg/kg, ip after 30 days; format: organism-based; design: dose 80 mg/kg, route intraperitoneal; conditions: in vivo, 720 h
Mus musculus [10] = assay: Subacute toxicity in CD1 mouse assessed as myeloid or lymphoid hyperplasia in bone marrow at 40 mg/kg, ip after 30 days; format: organism-based; design: dose 40 mg/kg, route intraperitoneal; conditions: in vivo, 720 h
Mus musculus [11] = assay: Subacute toxicity in CD1 mouse assessed as myeloid or lymphoid hyperplasia in bone marrow at 20 mg/kg, ip after 30 days; format: organism-based; design: dose 20 mg/kg, route intraperitoneal; conditions: in vivo, 720 h
Mus musculus [12] = assay: Subacute toxicity in CD1 mouse assessed as myeloid or lymphoid hyperplasia in bone marrow at 10 mg/kg, ip after 30 days; format: organism-based; design: dose 10 mg/kg, route intraperitoneal; conditions: in vivo, 720 h
Rattus norvegicus [13] = assay: Toxicity in Lewis rat assessed as WBC counts at 80 mg/kg, iv after 7 days; format: organism-based; design: dose 80 mg/kg, route intravenous; conditions: in vivo, 168 h
Rattus norvegicus [14] = assay: Toxicity in Lewis rat assessed as WBC counts at 40 mg/kg, iv after 7 days; format: organism-based; design: dose 40 mg/kg, route intravenous; conditions: in vivo, 168 h
Rattus norvegicus [15] = assay: Toxicity in Lewis rat assessed as WBC counts at 20 mg/kg, iv after 7 days; format: organism-based; design: dose 20 mg/kg, route intravenous; conditions: in vivo, 168 h
Rattus norvegicus [16] = assay: Toxicity in Lewis rat assessed as absolute neutrophil counts at 80 mg/kg, iv after 7 days; format: organism-based; design: dose 80 mg/kg, route intravenous; conditions: in vivo, 168 h
Rattus norvegicus [17] = assay: Toxicity in Lewis rat assessed as absolute neutrophil counts at 40 mg/kg, iv after 7 days; format: organism-based; design: dose 40 mg/kg, route intravenous; conditions: in vivo, 168 h
Rattus norvegicus [18] = assay: Toxicity in Lewis rat assessed as absolute neutrophil counts at 20 mg/kg, iv after 7 days; format: organism-based; design: dose 20 mg/kg, route intravenous; conditions: in vivo, 168 h
Rattus norvegicus [19] = assay: Toxicity in Lewis rat assessed as absolute lymphocyte counts at 80 mg/kg, iv after 7 days; format: organism-based; design: dose 80 mg/kg, route intravenous; conditions: in vivo, 168 h
Rattus norvegicus [20] = assay: Toxicity in Lewis rat assessed as absolute lymphocyte counts at 40 mg/kg, iv after 7 days; format: organism-based; design: dose 40 mg/kg, route intravenous; conditions: in vivo, 168 h
Rattus norvegicus [21] = assay: Toxicity in Lewis rat assessed as absolute lymphocyte counts at 20 mg/kg, iv after 7 days; format: organism-based; design: dose 20 mg/kg, route intravenous; conditions: in vivo, 168 h
Rattus norvegicus [22] = assay: Toxicity in Lewis rat assessed as myeloid or lymphoid hyperplasia in bone marrow at 80 mg/kg, iV after 7 days; format: organism-based; design: dose 80 mg/kg, route intravenous; conditions: in vivo, 168 h
Rattus norvegicus [23] = assay: Toxicity in Lewis rat assessed as myeloid or lymphoid hyperplasia in bone marrow at 40 mg/kg, iV after 7 days; format: organism-based; design: dose 40 mg/kg, route intravenous; conditions: in vivo, 168 h
Rattus norvegicus [24] = assay: Toxicity in Lewis rat assessed as myeloid or lymphoid hyperplasia in bone marrow at 20 mg/kg, iV after 7 days; format: organism-based; design: dose 20 mg/kg, route intravenous; conditions: in vivo, 168 h
Mus musculus [25] = assay: Anti-breast cancer activity in ip dosed MMTV/Neu transgenic mouse assessed as tumor progression delay; format: functional, organism-based
Mus musculus [26] = assay: Toxicity in ip dosed CD1 mouse; format: organism-based; conditions: in vivo
Rattus norvegicus [27] = assay: Toxicity in iv dosed Lewis rat; format: organism-based; conditions: in vivo
Rattus norvegicus [28] = assay: Effect on non-proliferating tissue in iv dosed Lewis rat assessed as toxic lesions in kidney on day 7; format: ADME, organism-based; conditions: in vivo
Rattus norvegicus [29] = assay: Effect on non-proliferating tissue in iv dosed Lewis rat assessed as toxic lesions in lung on day 7; format: ADME, organism-based; conditions: in vivo
Rattus norvegicus [30] = assay: Effect on non-proliferating tissue in iv dosed Lewis rat assessed as toxic lesions in brain on day 7; format: ADME, organism-based; conditions: in vivo
Rattus norvegicus [31] = assay: Effect on non-proliferating tissue in iv dosed Lewis rat assessed as toxic lesions in myocardium on day 7; format: ADME, organism-based; conditions: in vivo
Mus musculus [32] = assay: Effect on non-proliferating tissue in ip dosed CD1 mouse assessed as toxic lesions in brain; format: ADME, organism-based; conditions: in vivo
Mus musculus [33] = assay: Effect on non-proliferating tissue in po dosed BALB/c mouse assessed as toxic lesions in kidney; format: ADME, organism-based; conditions: in vivo
Mus musculus [34] = assay: Effect on non-proliferating tissue in po dosed BALB/c mouse assessed as toxic lesions in lung; format: ADME, organism-based; conditions: in vivo
Mus musculus [35] = assay: Effect on non-proliferating tissue in po dosed BALB/c mouse assessed as toxic lesions in brain; format: ADME, organism-based; conditions: in vivo
Mus musculus [36] = assay: Effect on non-proliferating tissue in po dosed BALB/c mouse assessed as toxic lesions in myocardium; format: ADME, organism-based; conditions: in vivo
Mus musculus [37] = assay: Acute toxicity in CD1 mouse assessed as WBC counts at 80 mg/kg, ip after 7 days; format: organism-based; design: dose 80 mg/kg, route intraperitoneal; conditions: in vivo, 168 h
Mus musculus [38] = assay: Acute toxicity in CD1 mouse assessed as absolute neutrophil counts at 80 mg/kg, ip after 7 days; format: organism-based; design: dose 80 mg/kg, route intraperitoneal; conditions: in vivo, 168 h
Mus musculus [39] = assay: Acute toxicity in CD1 mouse assessed as absolute lymphocyte counts at 80 mg/kg, ip after 7 days; format: organism-based; design: dose 80 mg/kg, route intraperitoneal; conditions: in vivo, 168 h
Mus musculus [40] = assay: Acute toxicity in CD1 mouse assessed as WBC counts at 40 mg/kg, ip after 7 days; format: organism-based; design: dose 40 mg/kg, route intraperitoneal; conditions: in vivo, 168 h
Mus musculus [41] = assay: Acute toxicity in CD1 mouse assessed as absolute neutrophil counts at 40 mg/kg, ip after 7 days; format: organism-based; design: dose 40 mg/kg, route intraperitoneal; conditions: in vivo, 168 h
Mus musculus [42] = assay: Acute toxicity in CD1 mouse assessed as absolute lymphocyte counts at 40 mg/kg, ip after 7 days; format: organism-based; design: dose 40 mg/kg, route intraperitoneal; conditions: in vivo, 168 h
Mus musculus [43] = assay: Acute toxicity in CD1 mouse assessed as WBC counts at 20 mg/kg, ip after 7 days; format: organism-based; design: dose 20 mg/kg, route intraperitoneal; conditions: in vivo, 168 h
Mus musculus [44] = assay: Acute toxicity in CD1 mouse assessed as absolute neutrophil counts at 20 mg/kg, ip after 7 days; format: organism-based; design: dose 20 mg/kg, route intraperitoneal; conditions: in vivo, 168 h
Mus musculus [45] = assay: Acute toxicity in CD1 mouse assessed as absolute lymphocyte counts at 20 mg/kg, ip after 7 days; format: organism-based; design: dose 20 mg/kg, route intraperitoneal; conditions: in vivo, 168 h
Mus musculus [46] = assay: Acute toxicity in CD1 mouse assessed as WBC counts at 10 mg/kg, ip after 7 days; format: organism-based; design: dose 10 mg/kg, route intraperitoneal; conditions: in vivo, 168 h
Mus musculus [47] = assay: Acute toxicity in CD1 mouse assessed as absolute neutrophil counts at 10 mg/kg, ip after 7 days; format: organism-based; design: dose 10 mg/kg, route intraperitoneal; conditions: in vivo, 168 h

## C/C(O)=C(\C#N)C(=O)Nc1cc(Br)ccc1Br
Mus musculus [1]
  Activity: 1 10^9/L
Mus musculus [2]
  Activity: 5.1 10^9/L
Mus musculus [3]
  Activity: 6.2 10^9/L
Mus musculus [4]
  Activity: 2.2 10^9/L
Mus musculus [5]
  Activity: 3.9 10^9/L
Mus musculus [6]
  Activity: 6 10^9/L
Mus musculus [7]
  Activity: 1.4 10^9/L
Mus musculus [8]
  Activity: 4.4 10^9/L
Mus musculus [9]
  Activity: Non-toxic
Mus musculus [10]
  Activity: Non-toxic
Mus musculus [11]
  Activity: Non-toxic
Mus musculus [12]
  Activity: Non-toxic
Rattus norvegicus [13]
  Activity: 11.7 10^9/L
Rattus norvegicus [14]
  Activity: 12.9 10^9/L
Rattus norvegicus [15]
  Activity: 11.7 10^9/L
Rattus norvegicus [16]
  Activity: 1.8 10^9/L
Rattus norvegicus [17]
  Activity: 2.1 10^9/L
Rattus norvegicus [18]
  Activity: 1.6 10^9/L
Rattus norvegicus [19]
  Activity: 9.7 10^9/L
Rattus norvegicus [20]
  Activity: 10.6 10^9/L
Rattus norvegicus [21]
  Activity: 9.8 10^9/L
Rattus norvegicus [22]
  Activity: Non-toxic
Rattus norvegicus [23]
  Activity: Non-toxic
Rattus norvegicus [24]
  Activity: Non-toxic
Mus musculus [25]
  Activity: Dose-dependent effect
Mus musculus [26]
  LD10: > 80 mg/kg
Rattus norvegicus [27]
  LD10: > 80 mg/kg
Rattus norvegicus [28]
  Activity: Non-toxic
Rattus norvegicus [29]
  Activity: Non-toxic
Rattus norvegicus [30]
  Activity: Non-toxic
Rattus norvegicus [31]
  Activity: Non-toxic
Mus musculus [32]
  Activity: Non-toxic
Mus musculus [33]
  Activity: Non-toxic
Mus musculus [34]
  Activity: Non-toxic
Mus musculus [35]
  Activity: Non-toxic
Mus musculus [36]
  Activity: Non-toxic
Mus musculus [37]
  Activity: 6.6 10^9/L
Mus musculus [38]
  Activity: 1.7 10^9/L
Mus musculus [39]
  Activity: 4.6 10^9/L
Mus musculus [40]
  Activity: 7 10^9/L
Mus musculus [41]
  Activity: 1.6 10^9/L
Mus musculus [42]
  Activity: 5.2 10^9/L
Mus musculus [43]
  Activity: 7.6 10^9/L
Mus musculus [44]
  Activity: 1.4 10^9/L
Mus musculus [45]
  Activity: 5.8 10^9/L
Mus musculus [46]
  Activity: 7 10^9/L
Mus musculus [47]
  Activity: 1.3 10^9/L
